Experimental data as given in patent EP4818187A1, “COMPOUND AND USE THEREOF” (Ganzhou Hemay Pharmaceutical, Co., Ltd, priority 2023, dated 2025).
Marks after values point to notes of the source that are not given here.

Assays:
[1] = system: MDA-MB-468 (human triple-negative breast cancer); assay: In vitro inhibitory effect against human tumor cells (SRB); type: cell-based; conditions: MDA-MB-468, 72 h, MDA-MB-468, SRB, 3 days
Experimental: (§1) Cells were cultured with 5% CO2 at 37°C and saturated humidity until they reached a logarithmic growth phase (usually adherent cells were nearly fully confluent). After removing adherent cells by trypsin/EDTA digestion, the cells were collected for subsequent experiments.
(§2) The cells were inoculated into a 96-well cell culture plate (hereinafter referred to as the 96-well plate) based on the cell count shown in Table 2, cultured overnight to achieve cell adherence, and then, after different concentrations of the test compound were added, further cultured for a total of 3 days. Finally, the total cell protein in the assay wells was assayed by SRB, or the cell viability was assessed by MTT:
(§3) 2.1 Assaying total cell protein by SRB: the modification is based on the method in the literature (V. Vichai and K. Kirtikara. Sulforhodamine B colorimetric assay for cytotoxicity screening. Nature Protocols. 2006, 1: 1112-1116). Specific method: the culture medium was pipetted out from the wells, the cells were fixed with 10% trichloroacetic acid for more than 1 h, and trichloroacetic acid was removed; the cells were washed with H2O, and stained with 0.4% SRB for 15-30 min; after excess SRB was removed, the cells were washed with 1% acetic acid; 100 µl of 10 mM tris(trihydroxymethylaminomethane) was added to dissolve the protein-bound SRB, followed by assay at a wavelength of 570 nm.
(§4) 2.3: 1-2 mg of β-glucuronidase was weighed, and dissolved in PBS to prepare 2 mg/mL stock solution. Prior to use, the stock solution was diluted with a complete medium to prepare 12.5 µg/mL enzyme working solution. For assay wells requiring the enzyme, 80 µL of the enzyme working solution was added, with the β-glucuronidase at a concentration of 1 µg/well; and for assay wells not requiring the enzyme, 80 µL of the complete medium was added.
(§5) 1-3 mg of the test compound was weighed, and dissolved in DMSO to prepare 20 mM stock solution. The stock solution was diluted in a 3-fold gradient with DMSO, then diluted 100-fold with RPMI1640 basal medium to obtain 10× working solutions, with a total of 8 concentrations. 20 µL of the 10× working solutions were add to the assay wells, with the final volume of each well of 200 µL, and with the DMSO at a concentration of 0.1%.
(§6) 2.4 Calculation of inhibitory activity of compound: the experiment includes a compound test group, a compound-free positive solvent control group (PC), and a negative solvent control group (NC) without cells and the compound. Inhibition rate = [1−(testvalue−NCmean)/(PCmean−NCmean)] × 100% [formula]
(§7) The mean and SD of the inhibition rate were obtained from replicate assay wells. A curve was plotted with the compound concentrations distributed in a logarithmic form as the abscissa and with the mean inhibition rates as the ordinate, and was fitted with a 4-parameter logistic equation. The compound concentration corresponding to 50% inhibition rate on the curve is the IC50 value. Table 2: Culture medium formulation and cell inoculation concentration for human tumor cell lines

[2] = system: Fadu (human pharyngeal squamous cell carcinoma); assay: In vitro inhibitory effect against human tumor cells (MTT); type: cell-based; conditions: 72 h, 3 days
Experimental: as §1, §2
(§8) 2.2 Assaying cell viability by MTT: the modification is based on the method in the literature (J. Carmichael, W. DeGraff, A. Gazdar et al., Evaluation of a tetrazolium-based semiautomated colorimetric assay: assessment of chemosensitivity testing. Cancer Research. 1987, 47: 936-942). Specific method: For well-adherent cells: the medium was pipetted out, 100 µL of a basal medium containing 0.5 mg/mL MTT (medium free of fetal bovine serum (FBS) and other additives) was added to each well, and culture was continued for additional 3 h. The MTT-containing basal medium was pipetted out, and 100 µL of DMSO was added to each well to dissolve formazan, followed by assay at a wavelength of 490 nm.
(§9) For poorly-adherent cells: MTT solution was directly added to a concentration of 0.5 mg/mL, culture was continued for additional 3 h, and an equal volume of triple solvent was added to the system to dissolve formazan, followed by assay at a wavelength of 570 nm.
as §4, §5, §6, §7

[3] = system: BxPC-3 (human pancreatic cancer in situ); assay: In vitro inhibitory effect against human tumor cells (MTT or SRB); type: cell-based; conditions: BXPC-3, 72 h, BxPC-3, test method printed MTT (head: SRB), 3 days
Experimental: as §1, §2, §3, §8, §9, §4, §5, §6, §7

[4] = system: 22RV1 (human prostate cancer); assay: In vitro inhibitory effect against human tumor cells (SRB); type: cell-based; conditions: 22Rv1, 72 h, 22RV1, SRB, 3 days
Experimental: as §1, §2, §3, §4, §5, §6, §7

[5] = system: A375 (human malignant melanoma); assay: as above; type: cell-based; conditions: A-375, 72 h, 3 days
Experimental: as §1, §2, §3, §4, §5, §6, §7

[6] = system: HepG2 (human liver cancer cell); assay: as above; type: cell-based; conditions: HepG2, 72 h, 3 days
Experimental: as §1, §2, §3, §4, §5, §6, §7

[7] = system: SK-OV-3 (human ovarian cancer); assay: In vitro inhibitory effect against human tumor cells (MTT); type: cell-based; conditions: SK-OV-3, 72 h, SK-OV-3, MTT, 3 days
Experimental: as §1, §2, §8, §9, §4, §5, §6, §7

[8] = system: HCT116 (human colorectal cancer); assay: as above; type: cell-based; conditions: HCT-116, 72 h, 3 days
Experimental: as §1, §2, §8, §9, §4, §5, §6, §7

[9] = system: NCI-H1975 (human non-small cell lung cancer); assay: as above; type: cell-based; conditions: NCI-H1975, 72 h, 3 days
Experimental: as §1, §2, §8, §9, §4, §5, §6, §7

[10] = system: human ovarian cancer SK-OV-3; assay: Biological Example 5: in vivo xenograft model of human ovarian cancer SK-OV-3; set-up: species or system Balb/c-nu nude mice; conditions: SK-OV-3 xenograft, nude mice; for Final body weight change (%) / Maximum body weight change (%) / Relative volume RTV (x±S.D.) / T/C (%) / Tumor inhibition rate (%) / Tumor weight (g, x±S.D.) / Body weight (g, x±S.D.) End / Body weight (g, x±S.D.) Start: 0.8 mg/kg i.v. qw×3
[11] = system: human non-small cell lung cancer NCI-H1975; assay: Biological Example 9: in vivo xenograft model of human non-small cell lung cancer NCI-H1975; set-up: species or system Balb/c-nu nude mice; conditions: nude mice
[12] = system: human non-small cell lung cancer NCI-H1975; assay: Biological Example 10: in vivo xenograft model of human non-small cell lung cancer NCI-H1975; set-up: species or system Balb/c-nu nude mice; conditions: nude mice
[13] = system: human non-small cell lung cancer NCI-H1975; assay: Biological Example 7: in vivo xenograft model of human non-small cell lung cancer NCI-H1975; set-up: species or system Balb/c-nu nude mice; conditions: nude mice
[14] = With addition of βGU (1 µg/well)

Row | Compound | IC50 [2, 14] [nM] | IC50 ([2]; βGU-free) [nM] | IC50 [3, 14] [nM] | IC50 ([3]; βGU-free) [nM] | IC50 [4, 14] [nM] | IC50 ([4]; βGU-free) [nM] | IC50 [5, 14] [nM] | IC50 ([5]; βGU-free) [nM] | IC50 [6, 14] [nM] | IC50 ([6]; βGU-free) [nM] | IC50 [7, 14] [nM] | IC50 ([7]; βGU-free) [nM] | IC50 [8, 14] [nM] | IC50 ([8]; βGU-free) [nM] | IC50 [9, 14] [nM] | IC50 ([9]; βGU-free) [nM] | Final body weight change (%) [10] [%] | Maximum body weight change (%) [10] | Relative volume RTV (x±S.D.) [10] | T/C (%) [10] [%] | other results
1 | CC[C@H](C)[C@@H]([C@@H](CC(=O)N1CCC[C@H]1[C@H](OC)[C@@H](C)C(=O)N[C@H](C)[C@@H](O)c1ccccc1)OC)N(C)C(=O)[C@@H](NC(=O)[C@H](C(C)C)N(C)Cc1ccc(O[C@@H]2O[C@H](C(=O)O)[C@@H](O)[C@H](O)[C@H]2O)cc1OCc1cn(CCCCCC(=O)Nc2ccc(-c3ccc(/N=N/c4ccc5c(S(=O)(=O)O)cc(S(=O)(=O)O)c(N)c5c4O)c(C)c3)cc2C)nn1)C(C)C [Example compound 3] | 7.8 | 159 | 9.7 | 106 | – | – | – | – | – | – | – | – | – | – | – | – | – | – | – | – | IC50 [1, 14]: 0.77 nM; IC50 ([1]; βGU-free): 50 nM
2 | CC[C@H](C)[C@@H]([C@@H](CC(=O)N1CCC[C@H]1[C@H](OC)[C@@H](C)C(=O)N[C@H](C)[C@@H](O)c1ccccc1)OC)N(C)C(=O)[C@@H](NC(=O)[C@H](C(C)C)[N+](C)(CC)Cc1ccc(O[C@@H]2O[C@H](C(=O)[O-])[C@@H](O)[C@H](O)[C@H]2O)cc1OCc1cn(CCOCCC(=O)Nc2ccc(-c3ccc(/N=N/c4ccc5c(S(=O)(=O)[O-])cc(S(=O)(=O)[O-])c(N)c5c4O)c(C)c3)cc2C)nn1)C(C)C.[Na+].[Na+] (stereo partly shown) [Example compound 8] | 0.79 | 19 | 0.54 | 21 | 3 | 63 | 2.4 | 43 | 4 | 86 | 2.6 | 61 | 2.1 | 51 | 3.4 | 72 | 4.6 | 4.6, d21% | 0.08±0.02 | 0.7 | Tumor inhibition rate (%) [10]: 99.7%; Tumor weight (g, x±S.D.) [10]: 0.005 ± 0.003 g; Animal death ([10]; 0.8 mg/kg i.v. qw×3, group G5, stated to be independent of drug administration (biting and fighting injury)): One animal in group G5 died on day 18; Body weight (g, x±S.D.) End [10]: 24.1 ± 1.6 g; Body weight (g, x±S.D.) Start [10]: 22.9 ± 1.6 g; Final body weight change (%) ([11]; 0.8 mg/kg i.v. qw×3): 4%; Maximum body weight change (%) ([11]; 0.8 mg/kg i.v. qw×3): 4.3, d17%; Relative volume RTV (x±S.D.) ([11]; 0.8 mg/kg i.v. qw×3): 0.19±0.27; T/C (%) ([11]; 0.8 mg/kg i.v. qw×3): 2.5%; Tumor inhibition rate (%) ([11]; 0.8 mg/kg i.v. qw×3): 98.3%; Tumor weight (g, x±S.D.) ([11]; 0.8 mg/kg i.v. qw×3): 0.022±0.038* * g; Body weight (g, x±S.D.) End 24d ([11]; 0.8 mg/kg i.v. qw×3, End 24d): 26.3 ± 1.5 g; Body weight (g, x±S.D.) Start ([11]; 0.8 mg/kg i.v. qw×3, Start): 25.3 ± 1.1 g
3 | CC[C@H](C)[C@@H]([C@@H](CC(=O)N1CCC[C@H]1[C@H](OC)[C@@H](C)C(=O)N[C@H](C)[C@@H](O)c1ccccc1)OC)N(C)C(=O)[C@@H](NC(=O)[C@H](C(C)C)[N+](C)(C)Cc1ccc(O[C@@H]2O[C@H](C(=O)[O-])[C@@H](O)[C@H](O)[C@H]2O)cc1OCc1cn(CCOCCC(=O)Nc2ccc(-c3ccc(/N=N/c4ccc5c(S(=O)(=O)[O-])cc(S(=O)(=O)[O-])c(N)c5c4O)c(C)c3)cc2C)nn1)C(C)C.[Na+].[Na+] [Example compound 9] | 0.35 | 25 | 0.86 | 28 | 3.8 | 86 | 2.7 | 27 | 3.8 | 88 | 2.4 | 65 | 2.9 | 69 | 4.7 | 69 | 5.3 | 5.3, d21% | 0.05±0.03 | 0.4 | Final body weight change (%) ([12]; 0.4 mg/kg i.v. qw×2): 4.8%; Maximum body weight change (%) ([12]; 0.4 mg/kg i.v. qw×2): 4.8, d28%; Relative volume RTV (x±S.D.) ([12]; 0.4 mg/kg i.v. qw×2): 0.38±0.05; T/C (%) ([12]; 0.4 mg/kg i.v. qw×2): 7.7%; Tumor inhibition rate (%) ([12]; 0.4 mg/kg i.v. qw×2): 93.4%; Tumor weight (g, x±S.D.) ([12]; 0.4 mg/kg i.v. qw×2): 0.073 ± 0.016 g; Body weight (g, x±S.D.) End 24d ([12]; 0.4 mg/kg i.v. qw×2, End 24d): 23.5 ± 0.6 g; Body weight (g, x±S.D.) Start ([12]; 0.4 mg/kg i.v. qw×2, Start): 22.5 ± 1.4 g; Tumor inhibition rate (%) [10]: 99.9%; Tumor weight (g, x±S.D.) [10]: 0.002 ± 0.001 g; Body weight (g, x±S.D.) End [10]: 25.8 ± 0.7 g; Body weight (g, x±S.D.) Start [10]: 24.5 ± 0.6 g; Final body weight change (%) ([13]; 0.8 mg/kg i.v. qw×3): 8.8%; Maximum body weight change (%) ([13]; 0.8 mg/kg i.v. qw×3): 8.8, d21%; Relative volume RTV (x±S.D.) ([13]; 0.8 mg/kg i.v. qw×3): 0.45±0.30; T/C (%) ([13]; 0.8 mg/kg i.v. qw×3): 3.2%; Tumor inhibition rate (%) ([13]; 0.8 mg/kg i.v. qw×3): 97.7%; Tumor weight (g, x±S.D.) ([13]; 0.8 mg/kg i.v. qw×3): 0.041 ± 0.051 g; Body weight (g, x±S.D.) End ([13]; 0.8 mg/kg i.v. qw×3, End): 28.3 ± 2.9 g; Body weight (g, x±S.D.) Start ([13]; 0.8 mg/kg i.v. qw×3, Start): 26.1 ± 2.8 g
